# Test results from US9730444B2, “Herbicidal compositions comprising isoxaben and aminopyralid” (Dow AgroSciences LLC, priority 2013, dated 2017).
# Columns and labels:
# [1] = tested on: STEME = Stellaria media (L.) Vill. (common chickweed); experiment: Small plot field trial in winter wheat, foliar-applied, visual % control of STEME; assay type: in vivo; conditions: Trial 1, observed mean, 200 L/ha water, winter wheat crop stage 12-13, rates: isoxaben 40 g ai/ha, aminopyralid 5 g ae/ha, flufenacet 200 g ai/ha, diflufenican 100 g ai/ha
# From the text: (§1) Results in Table 1 are for foliar-applied compositions in small plot research experiments to evaluate the efficacy of the compositions in winter wheat. Application water volume was 200 liters per hectare (L/ha). Crop stage at time of application was 12-13. The values reported are means. […] Colby's equation was used to determine the herbicidal effects expected from the mixtures (Colby, S. R. Calculation of the synergistic and antagonistic response of herbicide combinations. Weeds 1967, 15, 20-22.).
# (§2) More specifically, the following equation is used to calculate the expected activity of mixtures containing two herbicical active ingredients: Expected=A+B−(A×B/100) • A=observed efficacy of a first active ingredient at the same concentration as used in the mixture; • B=observed efficacy of the second active ingredient (or product, which may contain a combination of active ingredients) at the same concentration as used in the mixture. For mixtures containing three herbicidal active ingredients, the following equation was used to calculate the expected activity:
# (§3) [formula] • A=observed efficacy of a first active ingredient at the same concentration as used in the mixture; • B=observed efficacy of a second active ingredient B at the same concentration as used in the mixture; • C=observed efficacy of a third active ingredient C at the same concentration as used in the mixture. The following abbreviations are used in Table 1: • GERDI=Geranium dissectum (cutleaf geranium) • STEME=Stellaria media (L.) Vill. (common chickweed) • g ai/ha=grams active ingredient per hectare • g ae/ha=grams acid equivalent per hectare • Ob=observed value of percent (%) control rated visually • Ex=expected value of percent (%) control as calculated by Colby's equation
# [2] = tested on: GERDI = Geranium dissectum (cutleaf geranium); experiment: Small plot field trial in winter wheat, foliar-applied, visual % control of GERDI; assay type: in vivo; conditions: Trial 1, observed mean, 200 L/ha water, winter wheat crop stage 12-13, rates: isoxaben 40 g ai/ha, aminopyralid 5 g ae/ha, flufenacet 200 g ai/ha, diflufenican 100 g ai/ha
# From the text: as §1, §2, §3
SMILES,VISUAL % CONTROL OF STEME 28 DAT Ob [1],VISUAL % CONTROL OF GERDI 28 DAT Ob [2]
"Nc1cc(Cl)nc(C(=O)O)c1Cl [aminopyralid, 4-amino-3,6-dichloropyridine-2-carboxylic acid]",0 e %,0 d %
"CCC(C)(CC)c1cc(NC(=O)c2c(OC)cccc2OC)on1 [isoxaben, N-[3-(1-ethyl-1-methylpropyl)isoxazol-5-yl]-2,6-dimethoxybenzamide]",0 e %,0 d %
"CC(C)N(C(=O)COc1nnc(C(F)(F)F)s1)c1ccc(F)cc1 [flufenacet, N-(4-fluorophenyl)-N-(1-methylethyl)-2-[[5-(trifluoromethyl)-1,3,4-thiadiazol-2-yl]oxy]acetamide]",0 e %,0 d %
